# Laboratory results as given in patent publication US10054581B1, “Inhibitors of notch signaling pathway and use thereof in treatment of cancers” (Ecole Polytechnique Federale de Lausanne (EPFL), priority 2011, dated 2018).
# Tested on: HCC1187
# Experiment: Annexin V apoptosis, HCC1187
# Assay type: cell-based, human
# Details: 10 μM, 7 days
# Procedure: FIGS. 6A-6D show 6-(4-Tert-Butylphenoxy)Pyridin-3-Amine (I3) induces G0/G1 cell cycle arrest and apoptosis in human T cell acute lymphoblastic leukemia cell lines and human breast cancer cell line HCC1187. […] Percentage of Annexin V positive (apoptotic) cell population was measured using flow cytometry.
# To quantitate the percentage of apoptotic cells, AnnexinV and 7AAD staining was performed. Thymic cells were suspended in 300 μl of 1× AnnexinV binding buffer (BD Biosciences, San Diego, USA) and incubated with 10 μl of AnnexinV-Cy5 antibody and 10 μl of 7AAD (BD Biosciences, San Diego, USA). Samples were incubated for 15 minutes at room temperature. FACS was performed with in one hour of antibody staining.
# This 6-(4-Tert-Butylphenoxy)Pyridin-3-Amine (I3) mediated proliferative arrest could be due to induction of apoptosis or cell cycle arrest during different phases of cell cycle. […] Therefore to further elucidate the mechanisms responsible for 6-(4-Tert-Butylphenoxy)Pyridin-3-Amine (I3) mediated proliferative arrest cell cycle and apoptosis analyses were carried out. […] To investigate cell death, Annexin V staining was performed and proportion of apoptotic (AnnexinV positive) cell population was determined by flow cytometry analyses after 7 days of treatment.
smiles,measurement,value
"CC(C)(C)c1ccc(Oc2ccc(N)cn2)cc1 [I3, 6-(4-Tert-Butylphenoxy)Pyridin-3-Amine]",apoptosis (Annexin V positive cells),induces apoptosis
